{"source": "patent US20190269705A1", "about": "“METHODS AND MATERIALS FOR TREATING GRAFT VERSUS HOST DISEASE” (Regents of the University of Minnesota, priority 2017, published 2019)", "key": {"Th17 cells [1]": {"tested_on": "Th17 cells", "assay": "3H-2-deoxyglucose uptake and ECAR, Th17", "assay_type": "cell-based, mouse", "procedure": "Glucose uptake assays were performed as described elsewhere (see, e.g., Macintyre et al., 2014 Cell Metab. 20(1):61-72). Naïve CD4+ T cells were differentiated into Th1 and Th17 cells, in triplicate, in the presence or absence of CB839 over 5 days and spun down after reisolation using CD4 kit as previously described. Cells were washed 2× in PBS, counted, then rested in 1 mL Kreb's Ringers HEPES (KRH) for 10 minutes. Cells were spun and resuspended to 5×10^5 cells/50 uL KRH for glucose uptake assay. Briefly, cells were […]. Cells incubated for 10 minutes at 37° C. Immediately after incubation, reaction was quenched with 200 μM phloretin (Calbiochem, Cat #: 524488). Cells were spun, washed, and then resuspended in scint fluid for counting on Beckman-Coulter scintillation counter. Pathway analysis of altered metabolites was performed using Metaboanalyst 3.0 (metaboanalyst. ca/faces/home.xhtml).\nExperiments were carried out on Agilent Seahorse XF96 bioanalyzer (Agilent). Briefly, wild type CD4+ cells were isolated as previous and activated for 3 days on CD3/CD28 as previously described, or skewed to Th1 and Th17 subsets as described above. T cells were spun onto XF96 Cell-Tak (BD Bioscience, Cat #: 354240) coated plates and rested in Seahorse XF RPMI 1640 media supplemented with glutamine, sodium pyruvate, and glucose. For immediate metabolic response, CB839 and UK5099 were injected separately or in combination, and OCR and ECAR measured.\nGlucose uptake assays were performed as previously described (Macintyre et al.,2014). Naïve CD4+ T cells were differentiated into Th1 and Th17 cells, in triplicate, in the presence or absence of CB839 over five days and spun down after reisolation using CD4 kit as previously described. At day 3 and 5, cells were removed, washed twice in PBS, counted, then rested in 1 mL Kreb's Ringers HEPES (KRH) for at least 10 minutes. Cells were spun and resuspended to 5×10^5 cells/50 μL KRH for glucose uptake assay. Briefly, 3H-2-deoxyglucose was suspended in KRH bubble layered in oil, and cells were added to this bubble. Cells were incubated for 10 minutes at 37° C. Immediately after incubation, reaction was quenched with 200 μM phloretin (Calbiochem, Cat #: 524488). Cells were spun, washed, and then resuspended in scintilation fluid for counting on Beckman-Coulter scintillation counter (3H, 1 min/sample read).\nExperiments were carried out on Agilent Seahorse XF96 bioanalyzer (Agilent). Briefly, wild type CD4+ cells were isolated as previous and activated for 3 days on αCD3/CD28 coated plates as previously described, or skewed to Th1 and Th17 subsets as described above. T cells were isolated and spun onto XF96 Cell-Tak (BD Bioscience, Cat #: 354240) coated plates and rested in Seahorse XF RPMI 1640 media supplemented with glutamine, sodium pyruvate, and glucose. For immediate metabolic response, 1 μM CB839 and 5 μM UK5099 (Cat #: PZ0160-5MG) were injected separately or in combination, and OCR and ECAR measured. For activation response, 1 uM CB839 was injected into IL-7 maintained naïve CD4+ T cells in seahorse medium and allowed to incubate for 20 minutes, followed by soluble αCD3/CD28 injection."}, "Th17 cells [2]": {"tested_on": "Th17 cells", "assay": "ATAC-Seq chromatin accessibility, Th17", "assay_type": "cell-based, mouse", "conditions": "Th17, 500 nM CB839, day 5", "procedure": "ATAC-Seq: Crude nuclei pellets were isolated as described elsewhere (see, e.g., Buenrostro et al., 2013 Nat Meth. 10(12):1213-1218) with modifications. Briefly, naïve CD4 T cells were skewed to Th1 and Th17 subsets in vitro with vehicle or in the presence of 500 nM CB839. At Day 5, T cells were re-isolated for CD4+ cells using Miltenyi CD4+ negative selection kit (Cat #: 130-104-454). 1×10^5 cells were removed for nuclei extraction in ATAC-Seq lysing buffer. Cells were exposed to Tn5+ adaptor proteins from Nextera DNA for 30 min at 37° C. and immediately placed on ice. Transposed eluate was amplified via PCR using Nextera DNA preparation kit (Illumina, Cat #: FC-121-1030), NEBNext High-fidelity 2× PCR mix (New England Labs, Cat #: M0541), and multiplexed (Illumina, Cat #: FC-121-1011). Samples were purified using Zymo DNA cleanup kit (Cat #: D4011). QC of samples was run on bioanalyzer before being sent for sequencing. RNA-Seq: Th1 and Th17 cells skewed with or without CB839 were isolated as previously described and total RNA extracted (Qiagen RNEasy Mini kit, Cat #: 74104). RNA was sent to VANTAGE core at Vanderbilt University and sequenced on HiSeq 2500. n=3 for each sample was analyzed. Samples were analyzed using the R program DESeq2. GSEA was performed using MSigDB. […]"}, "[3]": {"conditions": "mouse, in vivo"}, "[4]": {"tested_on": "hgp100-expressing vaccinia virus", "conditions": "mouse, in vivo"}, "CD8 T cells": {"tested_on": "CD8 T cells", "assay": "CD8 T cells activated on αCD3/CD28 + IL2, flow cytometry"}, "[5]": {"conditions": "Th17, day 5, listed as GLS inhibitor"}, "[6]": {"conditions": "CD8 T cells, five days stimulation"}}, "note": "Entries after “also recorded” stand apart in the source; their conditions may differ.", "data": [{"smiles": "O=C(Cc1cccc(OC(F)(F)F)c1)Nc1ccc(CCCCc2nnc(NC(=O)Cc3ccccn3)s2)nn1", "note": "[CB839]", "values": [{"measurement": "glucose uptake", "setting": "Th17 cells [1]; Th17, day 5", "result": "decreased"}, {"measurement": "media acidification (ECAR, glycolytic flux)", "setting": "Th17 cells [1]; Th17, day 5", "result": "decreased"}, {"measurement": "glucose uptake", "setting": "Th17 cells [1]; [5]", "result": "remained impaired"}, {"measurement": "media acidification (ECAR, glycolytic flux)", "setting": "Th17 cells [1]; [5]", "result": "remained impaired"}, {"measurement": "glucose uptake", "setting": "Th17 cells [1]; Th17, day three", "result": "reduced"}, {"measurement": "genes with regions of altered chromatin accessibility", "setting": "Th17 cells [2]", "result": "more genes with regions of reduced accessibility"}, {"measurement": "accumulation / persistence of transferred CD8 T cells", "setting": "[3]", "result": "accumulated to greater numbers in vivo by day 7; also recorded: enhances T cell persistence"}, {"measurement": "time increased cell numbers persisted", "setting": "[4]", "result": "greater than 5 weeks"}, {"measurement": "Granzyme B", "setting": "CD8 T cells; CD8 T cells, 4-5 days stimulation", "result": "increased levels of Granzyme B"}, {"measurement": "Eomes", "setting": "CD8 T cells; [6]", "result": "increased levels"}, {"measurement": "Perforin", "setting": "CD8 T cells; [6]", "result": "increased"}, {"measurement": "Tbet", "setting": "CD8 T cells; [6]", "result": "increased levels"}, {"measurement": "markers of proliferation", "setting": "CD8 T cells; [6]", "result": "increased levels"}, {"measurement": "portion of CD8 T cells expressing inhibitory receptors Lag3 and PD-1", "setting": "CD8 T cells; [6]", "result": "increased"}, {"measurement": "phospho-S6", "setting": "CD8 T cells; CTL in the presence of IL2", "result": "enhanced phospho-S6"}]}]}
